Common to all, as to assay type: biochemical
For one assay, the target named is T1, BTK-WT (Homo sapiens, UniProt Q06187).
T1 construct: purified from insect cells as a full-length construct containing an N-terminal 6X-His tag; His6 (N); made in house; host or cells: insect cells (baculovirus Sf21 in Method B)
In words: Btk in vitro inhibitory activity (one of Method A TR-FRET, Method B electrophoretic mobility shift, Method C radiometric filter binding). The note with it: D-compounds panel data; read-out: IC50 BTK-WT.

In the next assay the target is SRC (Homo sapiens, UniProt P12931). Nature of the assay: Inhibition of a panel of kinases, in vitro HotSpot kinase assay: SRC. The following applies: D-compounds panel data; 1 μM ATP. Here is the method: (§1) The degree of inhibition of a panel of kinases is determined using the in vitro HotSpot kinase assay (purified enzymes, ^33P-ATP, an appropriate substrate and 1 μM ATP).
Sequence of SRC (P12931 whole entry): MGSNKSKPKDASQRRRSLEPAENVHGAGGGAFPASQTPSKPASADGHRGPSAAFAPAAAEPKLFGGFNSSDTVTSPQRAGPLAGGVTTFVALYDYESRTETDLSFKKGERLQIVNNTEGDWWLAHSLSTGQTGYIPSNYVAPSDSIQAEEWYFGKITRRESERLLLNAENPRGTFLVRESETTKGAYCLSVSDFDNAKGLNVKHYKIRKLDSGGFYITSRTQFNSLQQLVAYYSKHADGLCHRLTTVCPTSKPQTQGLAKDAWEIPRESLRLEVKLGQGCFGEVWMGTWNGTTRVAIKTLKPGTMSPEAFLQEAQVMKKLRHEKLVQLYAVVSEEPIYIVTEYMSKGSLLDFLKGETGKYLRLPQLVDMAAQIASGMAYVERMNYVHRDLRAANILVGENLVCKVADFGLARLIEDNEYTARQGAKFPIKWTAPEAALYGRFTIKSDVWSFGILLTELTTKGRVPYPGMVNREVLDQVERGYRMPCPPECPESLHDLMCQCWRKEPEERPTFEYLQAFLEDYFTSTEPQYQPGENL

For the next assay, the target named is T2, TEC (Homo sapiens, UniProt P42680).
T2 sequence (P42680 1-631): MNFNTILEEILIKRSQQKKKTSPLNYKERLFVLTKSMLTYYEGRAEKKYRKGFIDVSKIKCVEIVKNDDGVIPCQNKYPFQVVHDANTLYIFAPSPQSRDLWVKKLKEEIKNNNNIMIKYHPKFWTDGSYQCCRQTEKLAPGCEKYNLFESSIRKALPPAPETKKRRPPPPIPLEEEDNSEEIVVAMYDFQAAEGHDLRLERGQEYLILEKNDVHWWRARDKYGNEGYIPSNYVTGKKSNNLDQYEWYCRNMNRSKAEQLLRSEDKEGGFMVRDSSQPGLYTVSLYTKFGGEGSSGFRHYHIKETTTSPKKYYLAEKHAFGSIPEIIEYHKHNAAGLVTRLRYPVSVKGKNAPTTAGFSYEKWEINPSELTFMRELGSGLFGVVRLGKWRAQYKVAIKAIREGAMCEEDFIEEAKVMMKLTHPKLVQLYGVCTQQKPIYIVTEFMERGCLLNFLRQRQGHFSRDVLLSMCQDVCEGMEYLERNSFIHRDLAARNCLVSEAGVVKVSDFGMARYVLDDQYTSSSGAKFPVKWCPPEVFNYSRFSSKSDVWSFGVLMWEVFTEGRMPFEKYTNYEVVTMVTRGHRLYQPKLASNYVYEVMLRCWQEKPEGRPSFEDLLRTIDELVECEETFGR
In words: Inhibition of a panel of kinases, in vitro HotSpot kinase assay: TEC. The note with it: D-compounds panel data; 1 μM ATP. As for the experimental part: as §1

The next assay concerns the target LCK (Homo sapiens, UniProt P06239). In words: Inhibition of a panel of kinases, in vitro HotSpot kinase assay: LCK. The note with it: D-compounds panel data; 1 μM ATP; read-out: IC50 LCK.
For another assay, the target named is EGFR (Homo sapiens, UniProt P00533). In words: Inhibition of a panel of kinases, in vitro HotSpot kinase assay: EGFR. The following applies: D-compounds panel data; 1 μM ATP. Here is the method: as §1
Sequence of EGFR (P00533 25-1210): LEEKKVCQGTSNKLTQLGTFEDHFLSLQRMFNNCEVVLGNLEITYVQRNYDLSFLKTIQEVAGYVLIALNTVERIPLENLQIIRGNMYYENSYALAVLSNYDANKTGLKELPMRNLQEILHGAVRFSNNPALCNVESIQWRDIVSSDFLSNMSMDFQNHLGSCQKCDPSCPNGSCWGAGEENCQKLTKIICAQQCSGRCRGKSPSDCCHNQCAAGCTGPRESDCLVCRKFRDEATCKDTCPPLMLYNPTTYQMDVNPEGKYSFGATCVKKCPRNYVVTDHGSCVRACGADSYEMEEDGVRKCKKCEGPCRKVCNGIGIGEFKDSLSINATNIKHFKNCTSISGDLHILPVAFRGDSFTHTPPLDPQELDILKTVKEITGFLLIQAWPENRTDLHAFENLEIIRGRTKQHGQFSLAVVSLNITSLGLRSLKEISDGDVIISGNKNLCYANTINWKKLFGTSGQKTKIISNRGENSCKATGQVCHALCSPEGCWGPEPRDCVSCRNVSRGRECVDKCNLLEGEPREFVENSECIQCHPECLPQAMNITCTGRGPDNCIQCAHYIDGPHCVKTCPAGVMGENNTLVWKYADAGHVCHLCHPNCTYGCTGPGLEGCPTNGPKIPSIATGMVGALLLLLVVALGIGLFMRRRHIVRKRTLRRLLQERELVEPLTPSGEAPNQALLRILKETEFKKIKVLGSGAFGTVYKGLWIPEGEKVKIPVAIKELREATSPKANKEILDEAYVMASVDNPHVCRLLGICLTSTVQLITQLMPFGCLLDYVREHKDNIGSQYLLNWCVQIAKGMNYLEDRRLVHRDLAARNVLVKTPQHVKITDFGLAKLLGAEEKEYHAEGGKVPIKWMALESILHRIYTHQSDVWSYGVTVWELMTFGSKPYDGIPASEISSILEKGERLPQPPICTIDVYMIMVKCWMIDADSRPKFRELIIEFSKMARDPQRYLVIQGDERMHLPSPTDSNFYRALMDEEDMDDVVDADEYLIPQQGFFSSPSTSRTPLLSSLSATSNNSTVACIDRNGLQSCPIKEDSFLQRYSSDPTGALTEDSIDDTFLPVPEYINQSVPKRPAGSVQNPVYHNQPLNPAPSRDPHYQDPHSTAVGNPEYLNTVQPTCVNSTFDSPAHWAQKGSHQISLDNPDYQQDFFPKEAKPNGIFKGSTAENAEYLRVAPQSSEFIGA

Bounds are passed on as bounds.

T1 sequence (Q06187 whole entry): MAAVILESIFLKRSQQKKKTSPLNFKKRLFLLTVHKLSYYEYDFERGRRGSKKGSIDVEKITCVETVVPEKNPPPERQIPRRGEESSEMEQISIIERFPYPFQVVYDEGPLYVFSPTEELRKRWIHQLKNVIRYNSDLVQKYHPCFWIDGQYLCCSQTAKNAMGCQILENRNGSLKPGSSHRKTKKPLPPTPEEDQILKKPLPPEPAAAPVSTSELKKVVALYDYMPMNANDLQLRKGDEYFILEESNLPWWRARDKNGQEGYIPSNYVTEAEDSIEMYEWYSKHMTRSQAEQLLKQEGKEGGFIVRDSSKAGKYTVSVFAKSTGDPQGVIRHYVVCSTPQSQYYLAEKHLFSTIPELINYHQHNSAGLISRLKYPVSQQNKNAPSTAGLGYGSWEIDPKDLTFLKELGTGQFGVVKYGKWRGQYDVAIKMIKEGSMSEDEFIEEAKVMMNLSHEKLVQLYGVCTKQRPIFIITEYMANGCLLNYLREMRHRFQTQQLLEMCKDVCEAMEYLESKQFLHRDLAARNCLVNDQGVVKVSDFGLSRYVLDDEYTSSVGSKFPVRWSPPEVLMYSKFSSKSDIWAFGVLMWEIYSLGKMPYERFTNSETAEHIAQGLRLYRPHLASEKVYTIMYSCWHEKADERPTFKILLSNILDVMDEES
Sequence of LCK (P06239 whole entry): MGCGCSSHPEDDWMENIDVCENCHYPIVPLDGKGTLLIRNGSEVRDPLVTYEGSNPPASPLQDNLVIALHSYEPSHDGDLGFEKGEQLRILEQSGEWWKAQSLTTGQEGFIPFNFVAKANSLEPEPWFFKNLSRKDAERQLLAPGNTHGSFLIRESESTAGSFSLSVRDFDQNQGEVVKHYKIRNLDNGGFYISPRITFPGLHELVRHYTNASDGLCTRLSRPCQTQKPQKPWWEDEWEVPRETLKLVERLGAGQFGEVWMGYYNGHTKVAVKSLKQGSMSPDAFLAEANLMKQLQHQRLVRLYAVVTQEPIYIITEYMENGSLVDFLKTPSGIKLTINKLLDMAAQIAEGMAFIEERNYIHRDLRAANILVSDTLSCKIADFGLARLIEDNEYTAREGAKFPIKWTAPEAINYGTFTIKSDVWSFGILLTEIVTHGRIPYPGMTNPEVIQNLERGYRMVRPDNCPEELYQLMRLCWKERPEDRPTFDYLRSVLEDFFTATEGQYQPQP

As for `Cn1cc(Nc2nc(N3CCC[C@H]4[C@@H]3CCCN4C(=O)c3ccc(C4CC4)cc3)cnc2C(N)=O)cn1` [Example D-47, 5-[(4aS,8aS)-5-(4-cyclopropylbenzoyl)-decahydro-1,5-naphthyridin-1-yl]-3-[(1-methyl-1H-pyrazol-4-yl)amino]pyrazine-2-carboxamide], the IC50 is 1000 to 10000 nM on BTK-WT; 1000 to 10000 nM at SRC; 1000 to 10000 nM against TEC; over 10000 nM at LCK; over 10000 nM at EGFR.

Take `C[C@@H]1[C@H](NC(=O)c2ccc(C3CC3)cc2F)CCCN1c1cnc(C(N)=O)c(Nc2ccc(C3(C)CCN(C4CCCC4)CC3)cc2)n1` [Example D-66, 3-{[4-(1-cyclopentyl-4-methylpiperidin-4-yl)phenyl]amino}-5-[(2R,3R)-3-(4-cyclopropyl-2-fluorobenzamido)-2-methylpiperidin-1-yl]pyrazine-2-carboxamide]: the IC50 was at most 10 nM at BTK-WT; at most 10 nM against SRC; at most 10 nM on TEC; under 10 nM at LCK; 10 to 100 nM at EGFR.

As for `C[C@@H]1C[C@@H](NC(=O)c2ccc(C3CC3)cc2)CN(c2cnc(C(N)=O)c(Nc3cnn(C)c3)n2)C1` [Example D-31, 5-[(3R,5R)-3-(4-cyclopropylbenzamido)-5-methylpiperidin-1-yl]-3-[(1-methyl-1H-pyrazol-4-yl)amino]pyrazine-2-carboxamide], the IC50 on BTK-WT is 10 to 100 nM; on SRC it was 100 to 1000 nM; on TEC, 100 to 1000 nM; at LCK, 1000 to 10000 nM; at EGFR it was over 10000 nM.

`CN(C)C(=O)N[C@@H]1CCCN(c2cnc(C(N)=O)c(Nc3ccc(C4(C)CCN(C5CCCC5)CC4)cc3)n2)[C@H]1CO` [Example D-60, 3-{[4-(1-cyclopentyl-4-methylpiperidin-4-yl)phenyl]amino}-5-[(2R,3R)-3-[(dimethylcarbamoyl)amino]-2-(hydroxymethyl)piperidin-1-yl]pyrazine-2-carboxamide]: the IC50 fell in the range of 100 to 1000 nM at BTK-WT; 100 to 1000 nM at SRC; 1000 to 10000 nM against TEC; 1000 to 10000 nM on LCK; 1000 to 10000 nM on EGFR.

Take `Cn1cc(Nc2nc(N3CCC[C@@H](NC(=O)c4ccc(C(C)(C)O)cc4)C3)nnc2C(N)=O)cn1` [Example D-39, 3-[(3R)-3-[4-(2-hydroxypropan-2-yl)benzamido]piperidin-1-yl]-5-[(1-methyl-1H-pyrazol-4-yl)amino]-1,2,4-triazine-6-carboxamide]: the IC50 is at most 10 nM on BTK-WT; 100 to 1000 nM on SRC; 10 to 100 nM on TEC; 100 to 1000 nM on LCK; over 10000 nM at EGFR.

Take `Cn1cc(Nc2nc(N3CCC[C@@H]4[C@H]3CCN4C(=O)c3ccc(C4CC4)cc3)cnc2C(N)=O)cn1` [Example D-44, 5-[(3aR,7aR)-1-(4-cyclopropylbenzoyl)-octahydro-1H-pyrrolo[3,2-b]pyridin-4-yl]-3-[(1-methyl-1H-pyrazol-4-yl)amino]pyrazine-2-carboxamide]: the IC50 at BTK-WT is 10 to 100 nM; at SRC, 1000 to 10000 nM; on TEC, 100 to 1000 nM; on LCK, 100 to 1000 nM; against EGFR it was 100 to 1000 nM.

On to `C[C@@H]1[C@H](NC(=O)c2ccc(C(F)(F)F)nc2)CCCN1c1cnc(C(N)=O)c(Nc2cnn(C)c2)n1` [Example D-91, 3-[(1-methyl-1H-pyrazol-4-yl)amino]-5-[(2R,3R)-2-methyl-3-[6-(trifluoromethyl)pyridine-3-amido]piperidin-1-yl]pyrazine-2-carboxamide], for which the IC50 is at most 10 nM at BTK-WT; 10 to 100 nM against SRC; 10 to 100 nM on TEC; 10 to 100 nM on LCK; 100 to 1000 nM against EGFR.

Take `CN1CCN(C(=O)c2ccc(Nc3nc(N[C@H]4CC[C@@H](NC(=O)N(C)C)CC4)cnc3C(N)=O)cc2)CC1` [Example D-72, 3-{[4-(4-methylpiperazine-1-carbonyl)phenyl]amino}-5-{[(1s,4s)-4-[(dimethylcarbamoyl)amino]cyclohexyl]amino}pyrazine-2-carboxamide]: the IC50 lay within 10 to 100 nM on BTK-WT; 100 to 1000 nM against SRC; 1000 to 10000 nM at TEC; 10 to 100 nM at LCK; 1000 to 10000 nM on EGFR.

`Cc1cc(Nc2nc(N3C[C@@H](NC(=O)N(C)C)CC[C@H]3C)cnc2C(N)=O)sn1` [Example D-75, 5-[(2R,5S)-5-[(dimethylcarbamoyl)amino]-2-methylpiperidin-1-yl]-3-[(3-methyl-1,2-thiazol-5-yl)amino]pyrazine-2-carboxamide]: the IC50 at BTK-WT lay in the range of 10 to 100 nM; at SRC, 100 to 1000 nM; against TEC, 100 to 1000 nM; at LCK it was 100 to 1000 nM; against EGFR it was 100 to 1000 nM.

Consider `C[C@@H]1[C@H](N2CCN(C)C2=O)CCCN1c1cnc(C(N)=O)c(Nc2ccc(C3(C)CCN(C4CC4)CC3)cc2)n1` [Example D-38, 3-{[4-(1-cyclopropyl-4-methylpiperidin-4-yl)phenyl]amino}-5-[(2R,3R)-2-methyl-3-(3-methyl-2-oxoimidazolidin-1-yl)piperidin-1-yl]pyrazine-2-carboxamide], for which the IC50 at BTK-WT was at most 10 nM; at SRC it was 10 to 100 nM; against TEC it was 10 to 100 nM; at LCK, 10 to 100 nM; against EGFR it was 100 to 1000 nM.

With `C[C@@H]1[C@H](NC(=O)c2ccc(C(C)(C)N)cc2)CCCN1c1cnc(C(N)=O)c(Nc2cnn(C)c2)n1` [Example D-51, 5-[(2R,3R)-3-[4-(2-aminopropan-2-yl)benzamido]-2-methylpiperidin-1-yl]-3-[(1-methyl-1H-pyrazol-4-yl)amino]pyrazine-2-carboxamide], the IC50 at BTK-WT is at most 10 nM; against SRC, at most 10 nM; on TEC it was at most 10 nM; on LCK, 10 to 100 nM; on EGFR it was 100 to 1000 nM.

As for `Cc1cc(Nc2nc(N3CCC[C@@H](NC(=O)c4ccc(C5CC5)cc4F)C3)cnc2C(N)=O)on1` [Example D-2, 5-[(3R)-3-(4-cyclopropyl-2-fluorobenzamido)piperidin-1-yl]-3-[(3-methyl-1,2-oxazol-5-yl)amino]pyrazine-2-carboxamide], the IC50 was 100 to 1000 nM on BTK-WT; 1000 to 10000 nM against SRC; 1000 to 10000 nM at TEC; over 10000 nM at LCK; over 10000 nM against EGFR.

Regarding `C[C@@H]1[C@H](NC(=O)N(C)C)CCCN1c1cnc(C(N)=O)c(Nc2cn[nH]c2)n1` [Example D-53, 5-[(2R,3R)-3-[(dimethylcarbamoyl)amino]-2-methylpiperidin-1-yl]-3-[(1H-pyrazol-4-yl)amino]pyrazine-2-carboxamide], the concentration for half-maximal inhibition (IC50) on BTK-WT lay within 10 to 100 nM; at SRC, 100 to 1000 nM; at TEC it was 10 to 100 nM; at LCK, 100 to 1000 nM; at EGFR, 1000 to 10000 nM.

Take `C[C@@H]1[C@H](NC(=O)c2ccc(C3CC3)cc2)CCCN1c1cnc(C(N)=O)c(Nc2cnc(N3CCN(C)CC3)nc2)n1` [Example D-318, 5-[(2R,3R)-3-(4-cyclopropylbenzamido)-2-methylpiperidin-1-yl]-3-{[2-(4-methylpiperazin-1-yl)pyrimidin-5-yl]amino}pyrazine-2-carboxamide]: the IC50 was at most 10 nM at BTK-WT; 100 to 1000 nM at SRC; 10 to 100 nM on TEC; 100 to 1000 nM on LCK; over 10000 nM on EGFR.

Regarding `C[C@@H]1[C@H](NC(=O)c2ccc(C(C)(C)O)nc2)CCCN1c1nnc(C(N)=O)c(Nc2cnn(C)c2)n1` [Example D-41, 3-[(2R,3R)-3-[6-(2-hydroxypropan-2-yl)pyridine-3-amido]-2-methylpiperidin-1-yl]-5-[(1-methyl-1H-pyrazol-4-yl)amino]-1,2,4-triazine-6-carboxamide], the IC50 on BTK-WT was at most 10 nM; against SRC it was 10 to 100 nM; at TEC, 10 to 100 nM; on LCK it was 10 to 100 nM; against EGFR, 1000 to 10000 nM.

For `C[C@@H]1[C@H](NC(=O)c2cnc(C3CC3)nc2)CCCN1c1cnc(C(N)=O)c(Nc2cnn(C)c2)n1` [Example D-86, 5-[(2R,3R)-3-(2-cyclopropylpyrimidine-5-amido)-2-methylpiperidin-1-yl]-3-[(1-methyl-1H-pyrazol-4-yl)amino]pyrazine-2-carboxamide], the IC50 on BTK-WT is at most 10 nM; at SRC it was 10 to 100 nM; against TEC, at most 10 nM; at LCK it was 10 to 100 nM; at EGFR, 1000 to 10000 nM.

As a reminder, the IC50 is the concentration at which inhibition is half-maximal.

The values are drawn from US20210070748A1, “INHIBITORS OF BRUTONS TYROSINE KINASE” (Pharmacyclics LLC, priority 2015, published 2021).
